Structures can show the parent of a compound that is named as a salt.
Molecular target: T1, recombinant human LTA4 hydrolase (rhLTA4H) (Homo sapiens, UniProt P09960)
T1 construct: made in house; host or cells: Spodoptera frugiperda (Sf-9) cells, baculovirus (pFastBac1)
T1 sequence (P09960 1-611): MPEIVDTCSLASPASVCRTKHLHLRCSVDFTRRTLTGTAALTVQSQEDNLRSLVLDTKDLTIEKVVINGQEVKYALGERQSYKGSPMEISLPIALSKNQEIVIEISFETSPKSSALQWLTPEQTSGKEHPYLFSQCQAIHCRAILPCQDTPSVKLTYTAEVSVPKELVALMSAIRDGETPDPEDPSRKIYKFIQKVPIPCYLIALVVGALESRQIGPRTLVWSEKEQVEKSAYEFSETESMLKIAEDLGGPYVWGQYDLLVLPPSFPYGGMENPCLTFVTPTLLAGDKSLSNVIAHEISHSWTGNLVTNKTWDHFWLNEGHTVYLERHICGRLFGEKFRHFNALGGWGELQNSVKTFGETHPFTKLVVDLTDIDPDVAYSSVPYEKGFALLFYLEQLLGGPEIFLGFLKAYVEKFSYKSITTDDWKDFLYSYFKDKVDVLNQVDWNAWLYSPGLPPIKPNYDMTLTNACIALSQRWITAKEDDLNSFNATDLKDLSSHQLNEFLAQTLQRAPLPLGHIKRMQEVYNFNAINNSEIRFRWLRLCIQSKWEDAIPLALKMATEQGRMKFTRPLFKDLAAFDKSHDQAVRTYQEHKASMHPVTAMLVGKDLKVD
Experiment: Recombinant Human LTA4 Hydrolase Assay for LTA4 Hydrolase Inhibitor Activity
Assay type: biochemical
Settings: average of results obtained; LTB4 quantified by enzyme-linked immunoassay
In short: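 Baculovirus/Sf-9-expressed human LTA4 hydrolase (36 ng) preincubated with compound 10 min at rt in 0.1 M potassium phosphate pH 7.4, 5 mg/mL fatty-acid-free BSA. Reaction started with 9 ng LTA4 free acid, run 10 min at rt; LTB4 measured by enzyme immunoassay, IC50 from 4-parameter fit.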

SMILES	Ki
NC(=O)N1C[C@@H]2C[C@H]1CN2CCc1cccc(Oc2nc3ccccc3s2)c1 [Example 39, (S,S)-5{2-[3-(Benzothiazol-2-yloxy)-phenyl]-ethyl}2,5-diaza-bicyclo[2.2.1]heptane-2-carboxylic acid amide]	100 nM
NC(=O)N1[C@@H]2CC[C@H]1C[C@@H](NCCOc1ccc(Oc3nc4c(Cl)cccc4s3)cc1)C2 [Example 221, meso-endo-3-{2-[4-(4-Chloro-benzothiazol-2-yloxy)-phenoxy]-ethylamino}-8-aza-bicyclo[3.2.1]octane-8-carboxylic acid amide]	802 nM
CS(=O)(=O)N[C@@H]1C[C@H]2CC[C@@H](C1)N2CCc1ccc(Oc2nc3c(Cl)cccc3s2)cc1 [Example 162, meso-exo-N-(8-{2-[4-(4-Chloro-benzothiazol-2-yloxy)-phenyl]-ethyl}-8-aza-bicyclo[3.2.1]oct-3-yl)-methanesulfonamide]	188 nM
CS(=O)(=O)N1[C@@H]2CC[C@H]1C[C@H](NCc1ccc(Oc3nc4ccc(F)cc4s3)cc1)C2 [Example 205, meso-exo-[4-(6-Fluoro-benzothiazol-2-yloxy)-benzyl]-(8-methanesulfonyl-8-aza-bicyclo[3.2.1]oct-3-yl)-amine]	394 nM
CS(=O)(=O)N1[C@@H]2CC[C@H]1C[C@@H](NCCOc1ccc(Oc3nc4c(Cl)cccc4s3)cc1)C2 [Example 194, meso-endo-{2-[4-(4-Chloro-benzothiazol-2-yloxy)-phenoxy]-ethyl}-(8-methanesulfonyl-8-aza-bicyclo[3.2.1]oct-3-yl)-amine]	3140 nM
CC(=O)N1[C@@H]2CC[C@H]1C[C@H](NCCc1ccc(Oc3nc4c(Cl)cccc4s3)cc1)C2 [Example 275, meso-exo-1-(3-{2-[4-(4-Chloro-benzothiazol-2-yloxy)-phenyl]-ethylamino}-8-aza-bicyclo[3.2.1]oct-8-yl)-ethanone]	264 nM
NC(=O)N[C@H]1C[C@H]2CC[C@@H](C1)N2CCc1ccc(Oc2nc3ccc(Cl)cc3s2)cc1 [Example 239, meso-endo-(8-{2-[4-(6-Chloro-benzothiazol-2-yloxy)-phenyl]-ethyl}-8-aza-bicyclo[3.2.1]oct-3-yl)-urea]	130 nM
NC(=O)N1[C@@H]2CC[C@H]1C[C@H](NCc1ccc(Oc3nc4cccc(F)c4s3)cc1)C2 [Example 171, meso-endo-3-[4-(7-Fluoro-benzothiazol-2-yloxy)-benzylamino]-8-aza-bicyclo[3.2.1]octane-8-carboxylic acid amide]	224 nM
c1ccc2sc(Oc3ccc(OCCN4C[C@@H]5C[C@H]4CN5)cc3)nc2c1 [Example 9B, (S,S)-2-{4-[2-(2,5-Diaza-bicyclo[2.2.1]hept-2-yl)-ethoxy]-phenoxy}-benzothiazole trifluoroacetate]	43 nM
CC(C)(O)C(=O)N[C@H]1C[C@H]2CC[C@@H](C1)N2Cc1ccc(Oc2nc3ccccc3s2)cc1 [Example 54, meso-endo-N-{8-[4-(Benzothiazol-2-yloxy)-benzyl]-8-aza-bicyclo[3.2.1]oct-3-yl}-2-hydroxy-2-methyl-propionamide]	4 nM
CC(C)(C)OC(=O)NC1(C(=O)N2C[C@@H]3C[C@H]2CN3Cc2ccc(Oc3nc4ccccc4s3)cc2)CC1 [Example 63, (S,S)-(1-{5-[4-(Benzothiazol-2-yloxy)-benzyl]-2,5-diaza-bicyclo[2.2.1]heptane-2-carbonyl}-cyclopropyl)-carbamic acid tert-butyl ester]	21 nM
CS(=O)(=O)N1C[C@@H]2C[C@H]1CN2CCOc1ccc(Oc2nc3cccc(Cl)c3s2)cc1 [Example 182, (S,S)-7-Chloro-2-{4-[2-(5-methanesulfonyl-2,5-diaza-bicyclo[2.2.1]hept-2-yl)-ethoxy]-phenoxy}-benzothiazole]	1590 nM
O=C(N1C[C@@H]2C[C@H]1CN2CCOc1ccc(Oc2nc3ccccc3s2)cc1)C1(O)CC1 [Example 27, (S,S)-(5-{2-[4-(Benzothiazol-2-yloxy)-phenoxy]-ethyl}-2,5-diaza-bicyclo[2.2.1]hept-2-yl)-(1-hydroxy-cyclopropyl)-methanone]	1 nM
CS(=O)(=O)N1C[C@@H]2C[C@H]1CN2CCOc1ccc(Oc2nc3c(F)cccc3s2)cc1 [Example 191, (S,S)-4-Fluoro-2-{4-[2-(5-methanesulfonyl-2,5-diaza-bicyclo[2.2.1]hept-2-yl)-ethoxy]-phenoxy}-benzothiazole]	32 nM
O=C(c1ccc[nH]1)N1C[C@@H]2C[C@H]1CN2Cc1ccc(Oc2nc3ccccc3s2)cc1 [Example 62, (S,S)-{5-[4-(Benzothiazol-2-yloxy)-benzyl]-2,5-diaza-bicyclo[2.2.1]hept-2-yl}-(1H-pyrrol-2-yl)-methanone]	36 nM
CC(=O)N1[C@@H]2CC[C@H]1C[C@H](NCCOc1ccc(Oc3nc4cccc(F)c4s3)cc1)C2 [Example 263, meso-exo-1-(3-{2[4-(7-Fluoro-benzothiazole-2-yloxy)-phenoxy]-ethylamino}8-aza-bicyclo[3.2.1]oct-8-yl)-ethanone]	190 nM

The remaining lines, values ahead:

Ki	SMILES
10 nM	O=C(CO)N1C[C@@H]2C[C@H]1CN2Cc1ccc(Oc2nc3ccccc3s2)cc1 [Example 10, (S,S)-1-{5-[4-(Benzothiazol-2-yloxy)-benzyl]-2,5-diaza-bicyclo[2.2.1]hept-2-yl}-2-hydroxy-ethanone]
273 nM	CS(=O)(=O)N1CCC2CN(Cc3ccc(Oc4nc5ccccc5s4)cc3)CC21 (stereo not shown) [Example 127, 2-[4-(1-Methanesulfonyl-hexahydro-pyrrolo[3,4-b]pyrrol-5-ylmethyl)-phenoxy]-benzothiazole]
51 nM	O=C(C1CCOCC1)N1CC2CN(Cc3ccc(Oc4nc5ccccc5s4)cc3)CC2C1 (stereo not shown) [Example 103, {5-[4-(Benzothiazol-2-yloxy)-benzyl]-hexahydro-pyrrolo[3,4-c]pyrrol-2-yl}-(tetrahydro-pyran-4-yl)-methanone]
18 nM	O=C(CO)N1C[C@@H]2C[C@H]1CN2CCc1ccc(Oc2nc3ccccc3s2)cc1 [Example 15, (S,S)-1-(5-{2-[4-(Benzothiazol-2-yloxy)-phenyl]-ethyl}-2,5-diaza-bicyclo[2.2.1]hept-2-yl)-2-hydroxy-ethanone]
375 nM	CS(=O)(=O)N1C[C@H]2C[C@@H]1CN2Cc1ccc(Oc2nc3cccc(F)c3s2)cc1 [Example 189, (R,R)-7-Fluoro-2-[4-(5-methanesulfonyl-2,5-diaza-bicyclo[2.2.1]hept-2-ylmethyl)-phenoxy]-benzothiazole]
13 nM	COCC(=O)N1C[C@H]2C[C@@H]1CN2Cc1ccc(Oc2nc3ccccc3s2)cc1 [Example 21, (R,R)-1-{5-[4-(Benzothiazol-2-yloxy)-benzyl]-2,5-diaza-bicyclo[2.2.1]hept-2-yl}-2-methoxy-ethanone]
20 nM	CS(=O)(=O)N1C[C@@H]2C[C@H]1CN2CCOc1ccc(Oc2nc3ccccc3s2)cc1 [Example 49, (S,S)-2-{4-[2-(5-Methanesulfonyl-2,5-diaza-bicyclo[2.2.1]hept-2-yl)-ethoxy]-phenoxy}-benzothiazole]
57 nM	NC(=O)N1CCC2CN(Cc3ccc(Oc4nc5ccccc5s4)cc3)CC21 (stereo not shown) [Example 135, 5-[4-(Benzothiazol-2-yloxy)-benzyl]-hexahydro-pyrrolo[3,4-b]pyrrole-1-carboxylic acid amide]
18 nM	O=C(Nc1ccncc1)N1CC2CN(Cc3ccc(Oc4nc5ccccc5s4)cc3)CC2C1 (stereo not shown) [Example 132, 5-[4-(Benzothiazol-2-yloxy)-benzyl]-hexahydro-pyrrolo[3,4-c]pyrrole-2-carboxylic acid pyridin-4-yl amide]
193 nM	CS(=O)(=O)N1CC2CN(Cc3ccc(Cc4nc5ccccc5s4)cc3)CC2C1 (stereo not shown) [Example 150, 2-[4-(5-Methanesulfonyl-hexahydro-pyrrolo[3,4-c]pyrrol-2-ylmethyl)-benzyl]-benzothiazole]
6 nM	CC(=O)N1CCC2CN(Cc3ccc(Oc4nc5ccccc5s4)cc3)CC2C1 (stereo not shown) [Example 89, 1-{2-[4-(Benzothiazol-2-yloxy)-benzyl]-octahydro-pyrrolo[3,4-c]pyridin-5-yl}-ethanone]
48 nM	O=C(O)CN1CC2CN(Cc3ccc(Oc4nc5ccccc5s4)cc3)CC2C1 (stereo not shown) [Example 158, {5-[4-(Benzothiazol-2-yloxy)-benzyl]-hexahydro-pyrrolo[3,4-c]pyrrol-2-yl}-acetic acid]
35 nM	CC(=O)N[C@H]1C[C@H]2CC[C@@H](C1)N2Cc1ccc(Cc2nc3ccccc3s2)cc1 [Example 5, meso-endo-N-[8-(4-Benzothiazol-2-ylmethyl-benzyl)-8-aza-bicyclo[3.2.1]oct-3-yl]-acetamide]
75 nM	CC(=O)N[C@H]1C[C@H]2CC[C@@H](C1)N2CCOc1ccc(Cc2nc3ccccc3s2)cc1 [Example 152, N-{8-[2-(4-Benzothiazol-2-ylmethyl-phenoxy)-ethyl]-8-aza-bicyclo[3.2.1]oct-3-yl}-acetamide]
260 nM	c1ccc2sc(Cc3ccc(CN4C[C@@H]5C[C@H]4CN5)cc3)nc2c1 [Example 4D, (S,S)-2-[4-(2,5-Diaza-bicyclo[2.2.1]hept-2-ylmethyl)-benzyl]-benzothiazole dihydrochloride]

From patent publication US8344008B2 (Janssen Pharmaceutica NV, priority 2007, dated 2013)
